Data reported in patent US8771682B2, “Methods and compositions for reducing interleukin-4 or interleukin-13 signaling” (Technische Universtität Dresden, priority 2011, dated 2014).
Entries after “also recorded” stand apart in the source; their conditions may differ.

Experiments:
Assay type in all cases: cell-based, human
[1] = tested on: loading of the signaling endosome with IL4-A647 in HEK293T transfected with IL-4Ra, IL-2Rg-eGFP and JAK3; test: Translocation of labeled IL-4 (IL4-A647) into signaling endosomes, co-localization with IL-2Rg-eGFP
Experimental: The inventors created a fluorescently labeled IL-4 ligand (Alexa647—succinimidylester, Invitrogen)—further referred to as IL4-A647.
HEK293T were transfected with IL-4Ra, IL-2Rg-eGFP, and JAK3 as described above and cultured under standard culture conditions. The cells were incubated at 4° C. with the inhibitor (optional) and stained with 50 nmol/I IL4-A647 and washed with medium (DMEM without phenole red). The temperature release from 0° C. to 20° C. was defined as a reference point for the onset of endocytosis. Thenceforth, co-localization of eGFP with A647 was measured.
Applying the fluorescent IL-4-A647 under conditions in which endocytosis is suppressed (4° C.) allows to observe the kinetics of the translocation into the signaling endosomes. The endocytosis starts with a temperature release. FIG. 15 illustrates that in an initial state (timepoint 0 min, IL4-A647 channel) the plasma membrane of the IL-4Ra chain expressing cells is homogeneously stained. However, after several minutes, the A647 fluorescence a punctuated pattern appears in the IL4-A647 channel showing a high degree of colocalization to the GFP channel (FIG. 16). Association of the stained endosomes with the actin cortex and the plasma membrane is apparent in central confocal cross-sections through a central part of the cell (FIG. 17). […] Such a readout could therefore be used to detect IL-4 translocation inhibitors.

[2] = tested on: endogenous type I signaling (IL-4R, Stat6 phosphorylation) in Jurkat T lymphocytic leukemia cell line; test: pStat6 levels, endogenous type I IL-4 signaling in Jurkat cells; settings: 10 min pre-incubation with inhibitor plus 30 min ligand and inhibitor, chlorpromazine 2.8 μmol/l
Experimental: In a second series of experiments the inventors assayed the type I IL-4R. The pStat6 levels were determined under the following conditions: • without ligand stimulation • incubation with IL-4 ligand for 30 min • 10 min pre-incubation with inhibitor plus 30 min incubation with ligand and inhibitor • 40 min pre-incubation with inhibitor followed by removal of the inhibitor and 30 min incubation with ligand (washout).
To assay endogenous type I signaling was analyzed in the Jurkat T lymphocytic leukemia cell line (ATCC TIB 152) showing a specific sensitivity to Rac/Pak dependent endocytosis.

[3] = tested on: type II IL-4 signaling (IL-4/IL-13, Stat6 phosphorylation); test: Stat6 phosphorylation by quantitative immunoblotting in Stat6-transfected HEK293T cells stimulated with IL-4 or IL-13 (type II signaling); settings: IL-4 3 ng/ml or IL-13 10 ng/ml, Dynasore 320 μmol/l, EHT-1864 50 μmol/l, IPA-3 10 μmol/l, FIG. 9
Text: It was verified by RT-PCR that HEK293T (human epithelial cell line—ATCC number CRL-11268) cells expressed the endogenous type II IL-4 pathway components IL4-Ra, IL-13Ra1, Jak1, while Stat6 and the type I specific components IL-2Rg, and Jak3 were absent (FIG. 4 and FIG. 5). In HEK cells ectopically expressing human Stat6 under the cytomegalovirus promoter (pcDNA3.1-GS-Stat6, Gene Storm, Invitrogen) and stimulated with either IL-4 or IL-13, phosphorylated Stat6 became detectable by immunoblotting (FIG. 6). Co-transfected RNAi (Sigma Aldrich, #EHU-029151) mediated knockdown of the endogenous IL-13Ra1 subunit verified that this signaling activity was mediated by the type II receptor pathway (FIG. 7). Ectopically Stat6 is functional.
To test whether IL-4 signaling depends on compounds inhibiting Rac/Pak dependent endocytosis, HEK293T cells were transfected with a plasmid encoding human Stat6. Following transfection, cells were grown overnight, treated with inhibitors and/or ligands, lysed, proteins separated electrophoretically under denaturing conditions, and phosphorylation of Stat6 detected by quantitative immunoblotting (Antibodies from Santa Cruz, anti-STAT6 (M-20) #sc-981 and anti-phospho-STAT6 (py641.18, #sc-136019; FIG. 9).
If not indicated otherwise, human recombinant IL-4 (Invitrogen, #PHC0045) was used at 3 ng/ml, and human recombinant IL-13 (Cell Signaling, #8905) was used at 10 ng/ml.
If not indicated otherwise, the dynamin inhibitor Dynasore (Sigma Aldrich, #D7693) was used at 320 μmol/l, the Rac1 inhibitor EHT-1864 (Sigma Aldrich, 41E-1657) at 50 μmol/l, and the PAK inhibitor IPA-3 (Sigma Aldrich, #I-2285) at 10 μmol/l.

[4] = tested on: transferrin uptake in HEK cells expressing endogenous transferrin receptor; test: Uptake of fluorescent transferrin (Alexa568-transferrin) by confocal fluorescence microscopy; settings: 25 μg/ml Alexa568-transferrin, compounds at working concentration (Dynasore 320 μmol/l), FIG. 14
Experimental: The inventors verified that the used compounds at the working concentration indeed blocked endocytosis by monitoring the uptake of 25 μg/ml fluorescent transferrin (Alexa568-transferrin, Invitrogen) with confocal fluorescence microscopy (FIG. 14). The experiment was performed with (untransformed) HEK-cells expressing endogenous transferrin receptor. As expected, dynamin dependent endocytosis could be blocked with Dynasore. […] As expected, inhibiting Rac1 and Pak 1/2 dependent actin polymerization by EHT-1864 and IPA-3 had no effect on transferrin uptake (FIG. 14).

O=c1cc(CN2CCOCC2)occ1OCCCCCSc1ccnc2cc(C(F)(F)F)ccc12 (racemic) [EHT-1864, 5-(5-(7-(Trifluoromethyl)quinolin-4-ylthio)pentyloxy)-2-(morpholinomethyl)-4H-pyran-4-one]
transport of the Alexa647-labeled ligand ([1]; 50 μmol/l EHT-1864, bottom membrane, 21 min after temperature release, FIG. 18): reduced
uptake of the labeled ligand ([1]; 50 μmol/l EHT-1864, central cross-section, 22 min after temperature release, FIG. 19): reduced uptake
loading of the signaling endosome with IL4-A647 ([1]; pre-incubation with 50 μmol/l EHT-1864, for up to 20 minutes after temperature release, FIG. 18): reduced significantly
IL-4 signaling (pStat6 level) [2]: significantly reduced
Stat6 phosphorylation level [3]: reduced the Stat6 phosphorylation level
transferrin uptake [4]: no effect

O=C(N/N=C/c1ccc(O)c(O)c1)c1cc2ccccc2cc1O [Dynasore]
IL-4 signaling (pStat6 level) [2]: significantly reduced
Stat6 phosphorylation level [3]: reduced the Stat6 phosphorylation level; also recorded: prevented Stat6 phosphorylation
transferrin uptake [4]: blocked transferrin endocytosis; also recorded: inhibit transferrin uptake

Oc1ccc2ccccc2c1SSc1c(O)ccc2ccccc12 [IPA-3, 1,1′-Dithiodi-2-naphthtol]
IL-4 signaling (pStat6 level) [2]: significantly reduced
Stat6 phosphorylation level [3]: reduced the Stat6 phosphorylation level
transferrin uptake [4]: no effect

CN(C)CCCN1c2ccccc2Sc2ccc(Cl)cc21 [chlorpromazine]
IL-4 signaling (pStat6 level) [2]: no effect; also recorded: not IL-4 signaling
IL-4 signaling (pStat6 level) ([2]; listed as Chlorpromazine): no inhibitory effect
transferrin uptake [4]: blocked transferrin uptake
transferrin uptake ([4]; listed as Chlorpromazine): inhibit transferrin uptake
